The subject of assay [1] is KATO-III cell line (FGFR2 amplification). Kind of assay: Cancer cell line cell viability assay (Cell Titer-Glo), 72 hr. Format: cell-based. The conditions noted are these: Homo sapiens, KATO III. The text has this: (§1) Experimental Purpose: To detect the change of intracellular ATP by Cell Titer-Glo® and to evaluate the inhibitory effect of the compounds on cancer cell lines by determining the in vitro IC50 value of the compounds.
(§2) Cell Titer-Glo® 2.0 Luminescent cell viability assay reagent was purchased from Promega (Madison, WI). KG-1, KATO-III, and MDA-MB-453 cell lines were purchased from American Type Culture Collection (Manassas, VA). RT112/84 cell line was purchased from Millipore-Sigma (St. Louis, MO). HuH7 cells were purchased from Seikisui Xenotech (Kansas City, KS). RT112/84 and MDA-MB-453 cells were cultured in RPMI1640 media supplemented with 10% fetal bovine serum. KG-1 and KATO-III cell lines were cultured in IMDM media supplemented with 20% FBS. HuH7 cells were cultured in IMDM media supplemented with 10% FBS. Cultures were maintained at 37° C. in a humidified atmosphere of 5% CO2 and 95% air.
(§3) Cell Viability Assay Procedure: Cells were plated in 96-well clear bottom/white plates (Corning #3903) at a range of densities depending on the optimal assay window (5,000-20,000 cells/well in […] of media), incubated overnight. The next day, test compound DMSO stock solutions were made at 10 mM and […] final concentration. Compounds were then added to cells in a 9-dose, 4-fold dilution series starting at 3 μM with an HP 300e Digital Dispenser (each dose was applied in triplicate). DMSO was backfilled to each well up to 301 nL total volume of test compound+DMSO, and a total of 301 nL DMSO was added to a control/no test compound well in triplicate. The cells in cell culture plates were incubated with the compounds at 37° C. and 5% CO2 for 72 hours-120 hours depending on the cell line. Then 50 μl of Cell Titer Glo 2.0 reagent was added to each well of the cell culture plates. The contents were covered from light and mixed on an orbital shaker at room temperature for minimum of 10 min. Luminescence was recorded by a Clariostar Plus Microplate Reader (BMG Labtech, Cary, NC). Cells were assessed as a percentage of DMSO only treated control cells. Curves were plotted and IC50 values were calculated using the GraphPad Prism 9 program based on a sigmoidal dose-response equation (log (inhibitor) vs. response—Variable slope, 4-parameter).
For orientation: In ATP-based viability assays light output follows the ATP content of the culture.

Assay [2] relates to RT112/84 cell line (FGFR3-fusion). Described as above. It is filed as cell-based. The settings on record: Homo sapiens, RT112/84, RT112/84 cell line (FGFR3-fusion).
From the text: as §1, §2, §3

Assay [3] concerns KG-1 cell line (FGFR 1-fusion). The description is as above. It is filed as cell-based. The conditions noted are these: Homo sapiens, KG-1, KG-1 cell line (FGFR1-fusion).
From the text: as §1, §2, §3

The next assay addresses T1, FGFR1 (Homo sapiens, UniProt P11362).
T1 construct: made in house; host or cells: E. coli (BL21-derived), T7 phage
Kind of assay: Kinase binding assay (kinase-tagged T7 phage, affinity beads, qPCR), Kd. The settings on record: read-out: FGFR1 (Kd nM). The gist of the method: (§4)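 Competition binding of compounds against kinase-tagged T7 phage captured on immobilised biotinylated ligand beads; bead-bound kinase quantified by qPCR of eluates. 11-point 3-fold dilution, 0.9% DMSO final; Kd from Hill fit with slope fixed at −1.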

A further assay has as its target T2, FGFR3 (Homo sapiens, UniProt P22607).
T2 construct: made in house; host or cells: E. coli (BL21-derived), T7 phage
The description is as above. The settings on record: read-out: FGFR3 (Kd nM). The method, boiled down: as §4

Setting [4] is: kinase binding assay, 11-point 3-fold dilution series.

Where two headings read alike, the source gives them in different places.

T1 sequence (P11362 22-822): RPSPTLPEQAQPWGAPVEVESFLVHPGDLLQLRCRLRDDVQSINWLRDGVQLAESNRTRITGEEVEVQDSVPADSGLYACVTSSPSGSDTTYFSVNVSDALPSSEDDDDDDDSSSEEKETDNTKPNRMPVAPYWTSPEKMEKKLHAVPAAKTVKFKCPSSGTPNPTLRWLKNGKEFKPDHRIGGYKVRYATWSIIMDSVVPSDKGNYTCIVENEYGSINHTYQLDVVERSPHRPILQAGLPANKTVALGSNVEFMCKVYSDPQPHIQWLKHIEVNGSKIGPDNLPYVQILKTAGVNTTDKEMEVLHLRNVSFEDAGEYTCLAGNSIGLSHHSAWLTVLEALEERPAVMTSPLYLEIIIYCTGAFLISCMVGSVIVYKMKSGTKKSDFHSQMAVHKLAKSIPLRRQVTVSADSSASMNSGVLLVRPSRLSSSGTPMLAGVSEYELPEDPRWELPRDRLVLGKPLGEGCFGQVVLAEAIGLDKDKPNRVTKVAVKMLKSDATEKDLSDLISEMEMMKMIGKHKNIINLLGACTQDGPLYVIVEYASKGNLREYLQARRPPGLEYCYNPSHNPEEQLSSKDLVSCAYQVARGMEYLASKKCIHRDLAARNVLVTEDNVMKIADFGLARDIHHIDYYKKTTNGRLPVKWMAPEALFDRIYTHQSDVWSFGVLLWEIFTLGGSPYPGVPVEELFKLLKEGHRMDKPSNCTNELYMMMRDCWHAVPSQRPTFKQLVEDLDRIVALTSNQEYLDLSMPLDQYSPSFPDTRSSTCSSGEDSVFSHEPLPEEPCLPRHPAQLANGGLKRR
T2 sequence (P22607 23-806): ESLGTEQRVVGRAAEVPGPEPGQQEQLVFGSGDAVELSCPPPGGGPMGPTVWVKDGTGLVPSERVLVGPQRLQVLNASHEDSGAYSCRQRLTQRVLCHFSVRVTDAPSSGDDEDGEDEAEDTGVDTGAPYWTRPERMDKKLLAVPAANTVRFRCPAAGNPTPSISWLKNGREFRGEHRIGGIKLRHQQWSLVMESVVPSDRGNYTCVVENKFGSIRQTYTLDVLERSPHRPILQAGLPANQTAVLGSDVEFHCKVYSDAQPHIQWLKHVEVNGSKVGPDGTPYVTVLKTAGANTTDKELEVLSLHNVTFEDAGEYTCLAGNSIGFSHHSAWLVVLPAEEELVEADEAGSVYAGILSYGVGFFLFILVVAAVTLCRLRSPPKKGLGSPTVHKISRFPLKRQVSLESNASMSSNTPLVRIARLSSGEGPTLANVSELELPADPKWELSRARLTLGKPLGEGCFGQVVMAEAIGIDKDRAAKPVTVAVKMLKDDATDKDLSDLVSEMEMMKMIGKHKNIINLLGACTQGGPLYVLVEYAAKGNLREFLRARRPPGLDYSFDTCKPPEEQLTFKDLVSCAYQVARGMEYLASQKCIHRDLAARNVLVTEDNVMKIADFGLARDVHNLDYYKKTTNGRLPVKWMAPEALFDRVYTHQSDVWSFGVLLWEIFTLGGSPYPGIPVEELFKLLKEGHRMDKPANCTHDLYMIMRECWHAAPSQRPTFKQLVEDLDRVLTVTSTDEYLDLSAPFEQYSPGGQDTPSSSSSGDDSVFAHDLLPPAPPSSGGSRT

The term IC50 denotes the concentration that gives 50% inhibition. High values mean weaker potency in that assay, low ones greater potency in that assay. For orientation: Kd means the concentration at which binding is half-saturated. In the case of `C[C@@H](Oc1ccc2[nH]nc(-c3ccc(N4CC(N)(C(=O)N(C)C)C4)nn3)c2c1)c1c(Cl)cncc1Cl` [Example 301, (R)-3-Amino-1-(6-(5-(1-(3,5-dichloropyridin-4-yl)ethoxy)-1H-indazol-3-yl)pyridazin-3-yl)-N,N-dimethylazetidine-3-carboxamide], the IC50 was in the range of 0.1 to 50 nM in assay [1], 0.1 to 50 nM in assay [2] and 50 to 200 nM in assay [3]. Moreover, the dissociation constant Kd at FGFR1 and on FGFR3 was 1 to 50 nM in each case.
On to `C[C@@H](Oc1ccc2[nH]nc(-c3cnc(N4CC(C)(NCCF)C4)c(F)c3)c2c1)c1c(Cl)cncc1Cl` [Example 303, (R)-1-(5-(5-(1-(3,5-dichloropyridin-4-yl)ethoxy)-1H-indazol-3-y1)-3-fluoropyridin-2-yl)-N-(2-fluoroethyl)-3-methylazetidin-3-amine], for which the IC50 in assay [1] fell in the range of 0.1 to 50 nM; in assay [2], 0.1 to 50 nM; in assay [3] it was 50 to 200 nM. Also, the Kd at FGFR1 and on FGFR3 was 1 to 50 nM throughout.
As to `COc1cc2[nH]nc(-c3cnc(N4CC(C)(N)C4)c(F)c3)c2cc1O[C@H](C)c1c(Cl)cncc1Cl` [Example 304, (R)-1-(5-(5-(1-(3,5-dichloropyridin-4-yl)ethoxy)-6-methoxy-1H-indazol-3-yl)-3-fluoropyridin-2-yl)-3-methylazetidin-3-amine], the half-maximal inhibitory concentration (IC50) is 0.1 to 50 nM in assay [1], 0.1 to 50 nM in assay [2] and 50 to 200 nM in assay [3]. In addition, the Kd at FGFR1 and at FGFR3 was 1 to 50 nM each time.
Take `C[C@@H](Oc1ccc2[nH]nc(-c3ccc(N4CC(N)(Cc5ccn(C)n5)C4)nn3)c2c1)c1c(Cl)cncc1Cl` [Example 306, (R)-1-(6-(5-(1-(3,5-dichloropyridin-4-yl)ethoxy)-1H-indazol-3-yl)pyridazin-3-yl)-3-((1-methyl-1H-pyrazol-3-yl)methyl)azetidin-3-amine]: the figures for the IC50 in assay [1], in assay [2] and in assay [3] were 50 to 200 nM, 0.1 to 50 nM and 200 to 1000 nM, respectively. Also, the Kd at FGFR1 and at FGFR3 was 1 to 50 nM in each case.
Take `CC(C)OC(=O)C1(N)CN(c2ccc(-c3n[nH]c4ccc(O[C@H](C)c5c(Cl)cncc5Cl)cc34)nn2)C1` [Example 308, (R)-isopropyl 3-amino-1-(6-(5-(1-(3,5-dichloropyridin-4-yl)ethoxy)-1H-indazol-3-yl)pyridazin-3-yl)azetidine-3-carboxylate]: the IC50 lay in the range of 50 to 200 nM in assay [1], 0.1 to 50 nM in assay [2] and 200 to 1000 nM in assay [3]. The Kd at FGFR1 and on FGFR3 was 1 to 50 nM throughout.
For `C[C@@H](Oc1ccc2[nH]nc(-c3ccc(N4CC(C)(NCC(=O)N(C)C)C4)nn3)c2c1)c1c(Cl)cncc1Cl` [Example 314, (R)-2-((1-(6-(5-(1-(3,5-dichloropyridin-4-yl)ethoxy)-1H-indazol-3-yl)pyridazin-3-yl)-3-methylazetidin-3-yl)amino)-N,N-dimethylacetamide], the IC50 in assay [1] is 50 to 200 nM; in assay [2], 0.1 to 50 nM; in assay [3], 200 to 1000 nM. Also, the Kd on FGFR1 and on FGFR3 was 1 to 50 nM each time.
As to `CCOCC1(N)CN(c2ccc(-c3n[nH]c4ccc(O[C@H](C)c5c(Cl)cncc5Cl)cc34)nn2)C1` [Example 316, (R)-1-(6-(5-(1-(3,5-dichloropyridin-4-yl)ethoxy)-1H-indazol-3-yl)pyridazin-3-yl)-3-(ethoxymethyl)azeti-din-3-amine], the IC50 is 50 to 200 nM in assay [1], 0.1 to 50 nM in assay [2] and 50 to 200 nM in assay [3]. In addition, the dissociation constant Kd at FGFR1 and at FGFR3 was 1 to 50 nM in each case.
In the case of `COCC1(N)CN(c2ccc(-c3n[nH]c4ccc(O[C@H](C)c5c(Cl)cncc5Cl)cc34)nn2)C1` [Example 376, (R)-1-(6-(5-(1-(3,5-dichloropyridin-4-yl)ethoxy)-1H-indazol-3-yl)pyridazin-3-yl)-3-(methoxy-methyl)aze-tidin-3-amine], the half-inhibitory concentration (IC50) is 50 to 200 nM in assay [1], 0.1 to 50 nM in assay [2] and 200 to 1000 nM in assay [3]. Moreover, the Kd on FGFR1 and at FGFR3 was 1 to 50 nM in each case.
Consider `CC(C)OCC1(N)CN(c2ccc(-c3n[nH]c4ccc(O[C@H](C)c5c(Cl)cncc5Cl)cc34)nn2)C1` [Example 377, (R)-1-(6-(5-(1-(3,5-dichloropyridin-4-yl)ethoxy)-1H-indazol-3-yl)pyridazin-3-yl)-3-(isopropoxy-methyl)a-zetidin-3-amine], for which the figures for the IC50 in assay [1], in assay [2] and in assay [3] were 50 to 200 nM, 0.1 to 50 nM and 200 to 1000 nM, respectively. Further, the dissociation constant (Kd) on FGFR1 and at FGFR3 was 1 to 50 nM in each case.
For `CC(C)=CCC1(N)CN(c2ccc(-c3n[nH]c4ccc(O[C@H](C)c5c(Cl)cncc5Cl)cc34)nn2)C1` [Example 378, (R)-1-(6-(5-(1-(3,5-dichloropyridin-4-yl)ethoxy)-1H-indazol-3-yl)pyridazin-3-yl)-3-(3-methylbut-2-en-1-yl)azetidin-3-amine], the IC50 in assay [1] was 50 to 200 nM; in assay [2], 0.1 to 50 nM; in assay [3], above 1000 nM. Also, the Kd at FGFR1 and on FGFR3 was 1 to 50 nM each time.
As for `C[C@H](O)CC1(N)CN(c2ncc(-c3n[nH]c4ccc(O[C@H](C)c5c(Cl)cncc5Cl)cc34)cc2F)C1` [Example 384, (S)-1-(3-amino-1-(5-(5-((R)-1-(3,5-dichloropyridin-4-yl)ethoxy)-1H-indazol-3-yl)-3-fluoropyridin-2-yl)azetidin-3-yl)propan-2-ol], the 50% inhibitory concentration (IC50) was in the range of 50 to 200 nM in assay [1], 0.1 to 50 nM in assay [2] and 50 to 200 nM in assay [3]. In addition, the Kd at FGFR1 (setting [4]) and on FGFR3 (setting [4]) was 1 to 50 nM throughout.
Take `C[C@@H](Oc1ccc2[nH]nc(-c3ccc(N4CCC(N)(CS(C)(=O)=O)CC4)nn3)c2c1)c1c(Cl)cncc1Cl` [Example 386, (R)-1-(6-(5-(1-(3,5-dichloropyridin-4-yl)ethoxy)-1H-indazol-3-yl)pyridazin-3-yl)-4-((methylsulfonyl)methyl)piperidin-4-amine]: the IC50 was in the range of 0.1 to 50 nM in assay [1], 0.1 to 50 nM in assay [2] and 50 to 200 nM in assay [3]. Further, the Kd at FGFR1 (setting [4]) and at FGFR3 (setting [4]) was 1 to 50 nM each time.
On to `C[C@@H](Oc1ccc2[nH]nc(-c3ccc(N4CC(N)(CS(C)(=O)=O)C4)nn3)c2c1)c1c(Cl)cncc1Cl` [Example 387, (R)-1-(6-(5-(1-(3,5-dichloropyridin-4-yl)ethoxy)-1H-indazol-3-yl)pyridazin-3-yl)-3-((methylsulfonyl)meth-yl)azetidin-3-amine], for which the IC50 in assay [1] lay in the range of 50 to 200 nM; in assay [2] it was 0.1 to 50 nM; in assay [3] it was 200 to 1000 nM. The Kd on FGFR1 (setting [4]) and on FGFR3 (setting [4]) was 1 to 50 nM in each case.
`C[C@@H](Oc1ccc2[nH]nc(-c3ccc(N4CC(N)(c5ccn(C)n5)C4)nn3)c2c1)c1c(Cl)cncc1Cl` [Example 388, (R)-1-(6-(5-(1-(3,5-dichloropyridin-4-yl)ethoxy)-1H-indazol-3-yl)pyridazin-3-yl)-3-(1-methyl-1H-pyrazol-3-yl)azetidin-3-amine]: the IC50 in assay [1] lay in the range of 50 to 200 nM; in assay [2], 0.1 to 50 nM; in assay [3], 200 to 1000 nM. Further, the Kd on FGFR1 (setting [4]) and on FGFR3 (setting [4]) was 1 to 50 nM in each case.
Take `CCOCC1(N)CN(c2ncc(-c3n[nH]c4ccc(O[C@H](C)c5c(Cl)cncc5Cl)cc34)cc2F)C1` [Example 390, 1-[5-[5-[(1R)-1-(3,5-dichloro-4-pyridyl)ethoxy]-1H-indazol-3-yl]-3-fluoro-2-pyridyl]-3-(ethoxymethyl)azeti-din-3-amine]: the figures for the IC50 in assay [1], in assay [2] and in assay [3] were 0.1 to 50 nM, 0.1 to 50 nM and 50 to 200 nM, respectively. The Kd on FGFR1 (setting [4]) and at FGFR3 (setting [4]) was 1 to 50 nM throughout.
